In patent publication US6165986A (Taisho Pharmaceutical Co., Ltd., priority 1997, dated 2000):
Values after ≈ are worked out from the molar mass of the structure shown.

Key:
Type in all cases: cell-based
S. epidermidis IID 866 = assay: In vitro antibacterial activity (MIC), S. epidermidis IID 866; conditions: Staphylococcus epidermidis, IID866, sensitive disc media, Japan Society of Chemotherapy method, read-out: MIC value (Minimum Inhibitory Concentration)
Method: (§1) The in vitro antibacterial activity of the compound obtained in Example 2 as an example of the compound of the present invention against various experimental bacteria was measured using sensitive disc media (produced by Eiken Chemical Co.) according to the MIC measuring method specified by the Japan Society of Chemotherapy. Clarithromycin was used as a comparative drug.

S. aureus 209P-JC = assay: In vitro antibacterial activity (MIC), S. aureus 209P-JC; conditions: Staphylococcus aureus, sensitive disc media, Japan Society of Chemotherapy method, read-out: MIC value (Minimum Inhibitory Concentration)
Method: as §1

Haemophilus influenzae = assay: Antibacterial activity against Haemophilus influenzae
Method: as §1

[1] = system: erythromycin-resistant bacteria; assay: Antibacterial activity against erythromycin-resistant bacteria
Method: as §1

[2] = system: erythromycin-sensitive bacteria; assay: Antibacterial activity against erythromycin-sensitive bacteria
Method: as §1

S. aureus Smith = assay: In vitro antibacterial activity (MIC), S. aureus Smith; conditions: Staphylococcus aureus, sensitive disc media, Japan Society of Chemotherapy method, read-out: MIC value (Minimum Inhibitory Concentration)
Method: as §1

E. faecalis CSJ 1212 = assay: In vitro antibacterial activity (MIC), E. faecalis CSJ 1212; conditions: Enterococcus faecalis, CSJ1212, sensitive disc media, Japan Society of Chemotherapy method, read-out: MIC value (Minimum Inhibitory Concentration)
Method: as §1

S. pneumoniae BM 225 = assay: In vitro antibacterial activity (MIC), S. pneumoniae BM 225; conditions: Streptococcus pneumoniae, BM225, sensitive disc media, Japan Society of Chemotherapy method, read-out: MIC value (Minimum Inhibitory Concentration)
Method: as §1

S. pneumoniae BM 211 = assay: In vitro antibacterial activity (MIC), S. pneumoniae BM 211; conditions: Streptococcus pneumoniae, BM211, sensitive disc media, Japan Society of Chemotherapy method, read-out: MIC value (Minimum Inhibitory Concentration)
Method: as §1

Row | SMILES | MIC (S. epidermidis IID 866) [mg/L] | MIC (S. aureus 209P-JC) [mg/L] | antibacterial activity (in words) (Haemophilus influenzae) | antibacterial activity (in words) [1] | antibacterial activity (in words) [2] | MIC (S. aureus Smith) [mg/L] | MIC (E. faecalis CSJ 1212) [mg/L] | MIC (S. pneumoniae BM 225) [mg/L] | MIC (S. pneumoniae BM 211) [mg/L]
1 | CC[C@H]1OC(=O)[C@H](C)C(=O)[C@H](C)[C@@H](O[C@@H]2O[C@H](C)C[C@H](N(C)C)[C@H]2O)[C@](C)(OC)C[C@@H](C)C(=O)[C@H](C)[C@H]2N(CCN(C)Cc3cccnc3)C(=O)O[C@]12C [Example 2, 11-[2-[N-methyl-N-(3-pyridylmethyl)amino]ethyl]amino-3,11-dideoxy-3-oxo-5-O-desosaminyl-6-O-methylerythronolide A 11,12-cyclic carbamate] | 0.1 (≈ 0.131 µM) | 0.05 (≈ 0.0657 µM) | strong antibacterial activity | strong antibacterial activity | strong antibacterial activity | 0.1 (≈ 0.131 µM) | 0.05 (≈ 0.0657 µM) | 0.39 (≈ 0.513 µM) | 50 (≈ 65.7 µM)
2 | CC[C@H]1OC(=O)[C@H](C)[C@@H](O[C@H]2C[C@@](C)(OC)[C@@H](O)[C@H](C)O2)[C@H](C)[C@@H](O[C@@H]2O[C@H](C)C[C@H](N(C)C)[C@H]2O)[C@](C)(OC)C[C@@H](C)C(=O)[C@H](C)[C@@H](O)[C@]1(C)O [Comparative drug, Clarithromycin, reference compound] | 0.2 (≈ 0.267 µM) | 0.1 (≈ 0.134 µM) |  |  |  | 0.2 (≈ 0.267 µM) | 0.2 (≈ 0.267 µM) | 50 (≈ 66.8 µM) | > 100
